# pEC50: −log10 of the molar value.
# Target: T1, ArpA (Streptomyces griseus, UniProt Q9ZN78)
# T1 sequence (Q9ZN78 1-276): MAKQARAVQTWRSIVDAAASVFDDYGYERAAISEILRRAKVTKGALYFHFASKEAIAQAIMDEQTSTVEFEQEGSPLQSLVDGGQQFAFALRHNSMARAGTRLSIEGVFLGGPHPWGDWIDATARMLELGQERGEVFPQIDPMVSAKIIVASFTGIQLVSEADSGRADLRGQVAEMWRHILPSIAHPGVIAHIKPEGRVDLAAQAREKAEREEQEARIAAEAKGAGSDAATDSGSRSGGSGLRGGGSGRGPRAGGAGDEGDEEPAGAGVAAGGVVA
# Assay: E. coli pTOTAL biosensor, GFP derepression dose-response
# Type: cell-based
row,Compound,pEC50
1,CC(C)CCCC[C@@H](O)[C@@H]1C(=O)OC[C@H]1CO [SCB1],4.74
2,CC(C)CCCCC(=O)C1C(=O)OC[C@H]1CO (some centres unmarked) [A-factor],6.41
